Measured values as given in US20220142948A1, “COMPOSITIONS AND METHODS FOR MODULATING METABOLIC REGULATORS OF T CELL PATHOGENICITY” (The Broad Institute, Inc., priority 2019, published 2022).
“Also recorded” adds a separate entry of the source.

Legend:
[1] = test system: Th17n, Th17p and iTreg cells; experiment: Population (bulk) RNA-seq of in vitro differentiated T cells; format: cell-based, mouse
Method: (§1) RNA-seq. For population (bulk) RNA-seq, in vitro differentiated T-cells were sorted for live cells and lysed with RLT Plus buffer and RNA was extracted using the RNeasy Plus Mini Kit (Qiagen). Full-length RNA-seq libraries were prepared as previously described and paired-end sequenced (75 bp×2) with a 150 cycle Nextseq 500 high output V2 kit.
Bulk RNA-Seq and SMART-Seq2 analysis. Applicants aligned single-cell SMART-Seq2 libraries with Bowtie2, quantified TPM gene expression with RSEM, and performed QC as Applicants described in detail in a previous publication^51. This computational pipeline is a massively revised and updated version of the one originally used to analyze these libraries^19. Batch effects and other nuisance factors were normalized with a model chosen empirically with SCONE ^52. Bulk RNA-Seq were processed with a modified variant of the same pipeline. In the absence of UMIs, differentially expressed genes were called through a linear model fitted to TPM values with the limma R package and with a mean-variance trend added to the empirical bayes prior^53,54.
as §1
Bulk RNA libraries from DFMO- or vehicle-treated Th17p, Th17n, or Treg were studied with 3 replicates per condition for a total of 18 libraries as shown in FIG. 36A. Genes that are associated with a Th17 or Treg programs (orange and purple, respectively, in FIG. 36B-C) were determined by differential expression test between bulk RNA libraries of (vehicle-treated) Th17n and Th17p on one side and Treg on the other with BH-adjusted p<0.05 and absolute value of log 2 fold-change of at least 1.5. Genes associated with the Th17p or Th17n program (magenta and green, respectively, in FIG. 40A) were determined by differential expression test between bulk RNA libraries of (vehicle-treated) Th17p vs. Th17n with the same thresholds. The PCA shown in FIG. 36A was computed on the set of 3,414 that were differentially associated with Th17, Treg, Th17p, or Th17n programs by the aforementioned criteria to focus it on the subspace of the transcriptome relevant to Th17 pathogenicity phenotypes.
Applicants aligned single-cell SMART-Seq libraries with Bowtie2, quantified TPM gene expression with RSEM, and performed QC as Applicants described in detail in a previous publication (Fletcher et al., 2017). This computational pipeline is a massively revised and updated version of the one originally used to analyze these libraries (Gaublomme et al., 2015). Batch effects and other nuisance factors were normalized with a model chosen empirically with SCONE (Cole et al., 2019). Bulk RNA-Seq were processed with a modified variant of the same pipeline.
For the Smart-Seq libraries, due the absence of UMIs in the dataset, differentially expressed genes were called through a linear model _tted to TPM values with the limma R package and with a mean-variance trend added to the empirical Bayes prior (Ritchie et al., 2015). For the bulk RNA libraries, differentially expressed genes were called with limma-trend or limma-voom (Law et al., 2014) depending on the variance of library sizes, as recommended in the limma package manual (Smyth, 2019).

[2] = test system: MOG35-55 specific T cells; experiment: Antigen-specific recall response of draining lymph node cells to MOG35-55 (thymidine incorporation, Legendplex); format: in vivo, mouse
Method: FIG. 37A-37I—Targeting ODC1 and SAT1 alleviate EAE. (A) Schematics of the polyamine pathway; (B-D) The effects of chemical inhibition of ODC1 by DFMO on EAE. Wildtype mice were immunized with MOG35-55/CFA to induce experimental autoimmune encephalomyelitis and followed for clinical scoring. DFMO were provided in drinking water from day 0 for 10 days in experimental group. B, Clinical score over time. […] C, Antigen-specific cell proliferation is measured by thymidine incorporation after culturing cells isolated from draining lymph node of mice (d15 post immunization) with increasing dose of MOG35-55 peptide for 3 days. D, Flow cytometric analysis of intracellular Foxp3 expression in T cells isolated from CNS at day 15 post immunization. (E-I) The effects of genetic perturbation of SAT1. E, The effects of SAT1 deficiency on metabolome. Abundance of metabolites in the polyamine pathway were determined by LC/MS based metabolomics. Th17n and Th17p cells were differentiated in vitro from naïve cells isolated from WT or SAT1^−/− mice. (F-I) The effects of SAT1 deficiency on EAE. EAE were induced as in (B) in wildtype and SAT1^fl/flCD4^cre mice. F, Clinical score (left) and histological score (right) showing the number of CNS infiltrates show representative experiment with 5 WT and 8 CKO mice. G-H, Cells were isolated from draining lymph node of mice (d23 post immunization) and co-cultured with increasing dose of MOG35-55 peptide for 3 days. Antigen-specific cell proliferation is measured by thymidine incorporation (G) and antigen-specific cytokine secretion by legendplex (H). I, Flow cytometry analysis of intracellular transcription factor expression in CD4 T cells isolated from CNS day 15 post immunization. Linear regression analysis (b, c, f, g), two-way anova (e) and student t test (d, i) were used for statistical analysis.
FIG. 46A-46J—EGCG exacerbates and DHEA ameliorates Th17-induced EAE in vivo. 2D2 TCR-transgenic Th17 cells were adoptively transferred after differentiation in vitro in the presence of an inhibitor or vehicle as indicated. (A, C, G) Clinical outcome of EAE; (B, D) Histological score based on cell infiltrates in meninges and parenchyma of CNS; (E, F) Draining lymph node (cervical) from respective mice were isolated and pulsed with increasing dose of MOG35-55 peptide for 3 days and (E) subjected to thymidine incorporation assay; or (F) measurement of cytokine secretion by Legendplex and flow cytometry. Concentrations were normalized through division by the respective response to no antigen control (H-I) Independent pathological report of CNS isolated from mice with EAE at end point (d35 for EGCG experiments; d28 for DHEA experiment); Optic nerves were not found in the histologic section from one animal in the EGCG+IL-23 group. (J) Representative histology of spinal cord and spinal nerve roots. […] PC, posterior column; PH, posterior horn. Individual mouse numbers are indicated. […] All are H. & E., 40× objective. Three similar experiments were performed.

[3] = test system: Th17 cells (Th17n, Th17p); experiment: T cell differentiation culture and flow cytometry (intracellular cytokine and transcription factor staining, CellTrace proliferation)
Method: Naïve CD4+CD44-CD62L+CD25-T cells were sorted using BD FACSAria sorter and activated with plate-bound anti-CD3 (1 μg/ml) and antiCD28 antibodies (2 μg/ml) in the presence of cytokines at a concentration of 5×10^5 cells/ml.
Naïve CD4+CD44-CD62L+CD25− T cells with or without including IL-17A.GFP+ were sorted using BD FACSAria sorter and activated with plate-bound anti-CD3 and antiCD28 antibodies (each 1 μg/ml) in the presence of cytokines at a concentration of 5×10^5 cells/ml. For T cell differentiations the following combinations of cytokines were used: pathogenic Th17 (Th17p): 25 ng/ml rmIL-6, 20 ng/ml rmIL-1b (both Miltenyi Biotec) and 20 ng/ml rmIL-23 (R&D systems); non-pathogenic Th17 (Th17n): 25 ng/ml rmIL-6 and 2 ng/ml of rhTGFb1 (Miltenyi Biotec). For differentiation experiments, cells were harvested at 72 hours and were performed in the presence or absence of 50 μM EGCG (Selleck Chemicals), 50 μM DHEA, 40 μM DCA, 10 μM Shikonin (all Sigma) as indicated.
Proliferation was assessed by staining with CellTrace Violet (Thermo Fisher Scientific) per manufacturer's instructions. All stainings were analyzed on a FACS LSR II (BD Bioscience) and using FlowJo software.

[4] = cMAF fl/fl CD4cre Th17 cells vs control
[5] = mice transferred with EGCG-treated Th17n cells

In the case of `NCCC[C@](N)(C(=O)O)C(F)F` [DFMO, 2-(difluoromethyl)ornithine], the “expression of chromatin modifiers / chromatin associated genes” value [1] is reported as “alters chromatin associated genes; also recorded: significant changes”, the “genes shared / expressed comparably between Th17 and Treg cells” value [1] is reported as “do not change; also recorded: no significant effect” and the “transcriptome shift (principal component analysis)” value ([1]; Th17 and iTreg cells) is reported as “shift Th17 cells to Treg-like transcriptome; also recorded: shift the cells towards Treg gene expression; also recorded: clearly driving cells towards Treg cells; also recorded: driving Th17 cells towards Treg cell profiles; also recorded: promotes Treg-like transcriptome”. For the same molecule, the Foxp3 ([1]; Th17 cells) was “upregulated”, the Il17a ([1]; Th17 cells) was “significantly suppressed” and the Il17f ([1]; Th17 cells) was “significantly suppressed”. For the same molecule, the Il23r ([1]; Th17 cells) was “significantly suppressed”, the “Th17 specific genes / transcriptome” value ([1]; Th17n and Th17p cells) was “reducing canonical Th17 genes; also recorded: shift Th17 specific genes down; also recorded: suppressed” and the “Treg specific genes / transcriptome” value ([1]; Th17n and Th17p cells) was “shift Treg specific genes up; also recorded: promoted”. The “proinflammatory state genes (upregulated in Th17p)” value ([1]; Th17p cells) was “downregulation”, the “regulatory state genes (upregulated in Th17n)” value ([1]; Th17p cells) was “significant upregulation” and the “antigen-specific recall response / proliferation (thymidine incorporation)” value ([2]; draining lymph node of DFMO treated EAE animals) was “decreases H3 incorporation; also recorded: decreases proliferation of immune cells; also recorded: significantly reduced”. The “IL-17+ cells” value ([3]; DFMO at 4-5 days only (expansion phase)) was “no change”, the “IL-17+ cells” value ([3]; DFMO at both days 1-3 and days 4-5) was “decrease” and the “IL-17+ cells” value ([3]; DFMO at days 1-3 only (differentiation)) was “decrease”. For the same molecule, the “IL-17 positive CD4 T cells” value ([3]; FACS, Th17 condition not stated) was “decreased”, the cell proliferation ([3]; Th17 cultures) was “less cell proliferation; also recorded: reduced cell proliferation” and the “frequency of Foxp3+ cells / Foxp3 expression” value ([3]; Th17n (non-pathogenic) condition) was “increase; also recorded: increased frequency”. For the same molecule, the “upregulation of Foxp3 by DFMO” value ([3]; Th17n cells, absence of JMJD3 (JMJD3fl/flCD4cre)) was “partially abrogated”, the Rorgt expression ([3]; Th17p cells) was “suppressed” and the Tbet expression ([3]; Th17p cells) was “suppressed”. For the same molecule, the “effect of DFMO on Foxp3 upregulation” value [3, 4] was “partially rescued”, the “effect of DFMO on expression of IL-17” value [3, 4] was “did not impact” and the “frequency of IL-17+ cells” value ([3]; cells that have divided just once) was “significantly reduced”. The “FoxP3 CD4 T cells” value ([3]; condition not stated) was “increase”, the IL-17 expression ([3]; intracellular staining, both Th17n and Th17p cells) was “suppresses IL-17 expression; also recorded: significantly inhibited” and the Rorgt expression ([3]; pathogenic and non-pathogenic Th17 cells) was “did not consistently alter; also recorded: does not alter”.

epigallocatechin-3-gallate [EGCG] was tested, and the CASP1 ([1]; Th17n) was “up-regulated; also recorded: upregulating”, the IKZF3 ([1]; Th17n) was “downregulated; also recorded: downregulating” and the IL7R ([1]; Th17n) was “up-regulated; also recorded: upregulating”. For the same molecule, the IL22 ([1]; Th17n) was “up-regulated; also recorded: upregulating”, the “pro-pathogenic transcriptional program / module” value ([1]; Th17n cells) was “promotes the pro-pathogenic module; also recorded: clearly strengthened” and the pro-regulatory module ([1]; Th17n cells) was “suppresses the pro-regulatory module”. The “position on PC1 (pathogenicity phenotype)” value ([1]; bulk RNA-Seq of d1 Th17n and Th17p cells) was “toward a more pathogenic one; also recorded: shifted cell profiles towards a more pathogenic state”, the “antigen-specific T cell proliferation” value [2, 5] was “only a small difference” and the “secretion of IL-6 in response to antigen” value [2, 5] was “significant increase”. For the same molecule, the “secretion of IL-17F in response to antigen” value [2, 5] was “significant increase”, the “secretion of IL-17 in response to antigen” value [2, 5] was “significant increase” and the “secretion of IL-22 in response to antigen” value [2, 5] was “significant increase”. For the same molecule, the IFNg expression ([3]; Th17n cells) was “upregulation”, the IL-10 ([3]; Th17n cells) was “suppression” and the Tbet expression ([3]; Th17n cells) was “upregulation”. The “IL-17 positive CD4 T cells / IL-17 expression” value ([3]; glycolysis enzyme inhibitors, non-pathogenic or pathogenic Th17 conditions, cells after one division) was “increase”.
